assay: Inhibition of CCL3 induced chemotaxis in human T lymphocytes

SMILES | IC50
CN1CCN(C(=O)C(CCC(C)(C)F)C[C@H](O)[C@H](Cc2ccccc2)NC(=O)c2cnc3ccccc3n2)CC1 (stereo partly drawn) [Quinoxaline-2-carboxylic acid [(1S,2S)-1-benzyl-7-fluoro-2-hydroxy-7-methyl-4-(4-methyl-piperazine-1-carbonyl)-octyl]-amide] | 7050 nM
NC(=O)C(C[C@H](O)[C@H](Cc1ccccc1)NC(=O)c1cnc2ccccc2n1)C1CCC(F)(F)CC1 (stereo partly drawn) [Quinoxaline-2-carboxylic acid [(1S,2S)-1-benzyl-4-carbamoyl-4-(4,4-difluoro-cyclohexyl)-2-hydroxy-butyl]-amide] | 220 nM
NC(=O)C(C[C@H](O)[C@H](Cc1ccccc1)NC(=O)c1cnc2ccccc2n1)C1CCCCC1 (stereo partly drawn) [Quinoxaline-2-carboxylic acid ((1S,2S)-1-benzyl-4-carbamoyl-4-cyclohexyl-2-hydroxy-butyl)-amide] | 5 nM
NC(=O)C(C[C@H](O)[C@H](Cc1ccccc1)NC(=O)c1cnc2ccccc2n1)C1(O)CCC(F)(F)CC1 (stereo partly drawn) [Quinoxaline-2-carboxylic acid [(1S,2S)-1-benzyl-4-carbamoyl-4-(4,4-difluoro-1-hydroxy-cyclohexyl)-2-hydroxy-butyl]-amide] | 68 nM
CC(C)(F)CCC(C[C@H](O)[C@H](Cc1ccccc1)NC(=O)c1cnc2ccccc2n1)C(=O)NCc1ccccc1 (stereo partly drawn) [Quinoxaline-2-carboxylic acid ((1S,2S)-1-benzyl-4-benzylcarbamoyl-7-fluoro-2-hydroxy-7-methyl-octyl)-amide] | 440 nM
CC(C)(F)CCC(C[C@H](O)[C@H](Cc1ccccc1)NC(=O)c1cnc2ccccc2n1)C(=O)N1CCCC1 (stereo partly drawn) [Quinoxaline-2-carboxylic acid [(1S,2S)-1-benzyl-7-fluoro-2-hydroxy-7-methyl-4-(pyrrolidine-1-carbonyl)-octyl]-amide] | 740 nM
NC(=O)C(C[C@H](O)[C@H](Cc1ccccc1)NC(=O)c1cnc2ccccc2n1)C1CCOCC1 (stereo partly drawn) [Quinoxaline-2-carboxylic acid [(1S,2S)-1-benzyl-4-carbamoyl-2-hydroxy-4-(tetrahydro-pyran-4-yl)-butyl]-amide] | 12500 nM
O=C(N[C@@H](Cc1ccccc1)[C@@H](O)CC(C(=O)NO)C1CCC(F)(F)CC1)c1cnc2ccccc2n1 (stereo partly drawn) [Quinoxaline-2-carboxylic acid [(1S,2S)-1-benzyl-4-(4,4-difluoro-cyclohexyl)-2-hydroxy-4-hydroxycarbamoyl-butyl]-amide] | 8 nM
NC(=O)C(C[C@H](O)[C@H](Cc1ccccc1)NC(=O)c1cnc2ccccc2n1)C1(O)CCCCC1 (stereo partly drawn) [Quinoxaline-2-carboxylic acid [(1S,2S)-1-benzyl-4-carbamoyl-2-hydroxy-4-(1-hydroxy-cyclohexyl)-butyl]-amide] | 120 nM
CNC(=O)[C@H](CC(C)C)C[C@H](O)[C@H](CC1CCCCC1)NC(=O)c1cnc2ccccc2c1 [Quinoline-3-carboxylic acid ((1S,2S,7R)-1-cyclohexylmethyl-2-hydroxy-6-methyl-4-methylcarbamoyl-heptyl)-amide] | 840 nM

Continued, values first:

IC50 | SMILES
1 nM | CC(C)(F)CCC(C[C@H](O)[C@H](Cc1ccccc1)NC(=O)c1cnc2ccccc2n1)C(=O)NN (stereo partly drawn) [Quinoxaline-2-carboxylic acid ((1S,2S)-1-benzyl-7-fluoro-4-hydrazinocarbonyl-2-hydroxy-7-methyl-octyl)-amide]
13 nM | CC(C)(F)CC[C@H](C[C@H](O)[C@H](Cc1ccccc1)NC(=O)c1cnc2ccccc2n1)C(N)=O [Quinoxaline-2-carboxylic acid ((1S,2S,4R)-1-benzyl-4-carbamoyl-7-fluoro-2-hydroxy-7-methyl-octyl)-amide]
130 nM | CCNC(=O)C(CCC(C)(C)F)C[C@H](O)[C@H](Cc1ccccc1)NC(=O)c1cnc2ccccc2n1 (stereo partly drawn) [Quinoxaline-2-carboxylic acid ((1S,2S)-1-benzyl-4-ethylcarbamoyl-7-fluoro-2-hydroxy-7-methyl-octyl)-amide]
31 nM | CC(C)(F)CCC(C[C@H](O)[C@H](Cc1ccccc1)NC(=O)c1cnc2ccccc2n1)C(=O)NO (stereo partly drawn) [Quinoxaline-2-carboxylic acid ((1S,2S)-1-benzyl-7-fluoro-2-hydroxy-4-hydroxycarbamoyl-7-methyl-octyl)-amide]
680 nM | CC(C)(O)CCC(C[C@H](O)[C@H](Cc1ccccc1F)NC(=O)c1cnc2ccccc2n1)C(N)=O (stereo partly drawn) [Quinoxaline-2-carboxylic acid [(1S,2S)-4-carbamoyl-1-(2-fluoro-benzyl)-2,7-dihydroxy-7-methyl-octyl]-amide]
1180 nM | CC(C)(O)CC[C@H](C[C@H](O)[C@H](Cc1ccccc1)NC(=O)c1cnc2ccccc2n1)C(N)=O [Quinoxaline-2-carboxylic acid ((1S,2S,4R)-1-benzyl-4-carbamoyl-2,7-dihydroxy-7-methyl-octyl)-amide]
2 nM | CC(C)CC[C@H](C[C@H](O)[C@H](Cc1ccccc1)NC(=O)c1cnc2ccccc2n1)C(N)=O [Quinoxaline-2-carboxylic acid ((1S,2S,4R)-1-benzyl-4-carbamoyl-2-hydroxy-7-methyl-octyl)-amide]
